Source: patent EP0355409A2, “Use of prolylendopeptidase inhibitors in the treatment of AIDS” (KABUSHIKI KAISHA YAKULT HONSHA, priority 1988, dated 1990)
Square brackets hold non-standard residues; d marks the D form. Peptide text beside a SMILES is read from it. * marks the point of attachment. Cbz = O=C(OCc1ccccc1)*; Thz = O=C(O)[CH]1CSCN1

Columns and labels:
[1] = tested on: LAV-1 infected CEM cells (CEM/LAV-1) and MOLT4 Clone 8; assay: Inhibition of syncytia formation in mixed culture of HIV-infected and non-infected T cells; type: cell-based; parameters: key: -: Absolutely no inhibition of syncytium formation.; ±: Slight inhibition of syncytium formation.; +: Partial inhibition of syncytium formation.; ++: Substantial inhibition of syncytium formation.; +++: Complete inhibition of syncytium formation; conditions: 1 mM; CEM/LAV-1 + MOLT4 Clone 8, 37°C, 18 hours
Text: When HIV-infected T cells and non-infected T cells are mixed in a test tube, the infected T cells and non-infected T cells undergo fusion and form giant cells. This "syncytium forming phenomenon" has already been known to be observed upon their mixing. This phenomenon is characteristic to intercellular infection from HIV and is regarded as an evidence for HIV infection of T cells.
(§1) LAV-1 infected CEM cells (CEM/LAV-1, 2 x 10⁴) and MOLT4 Clone 8 (1 x 10⁵) were used as HIV-infected cells and non-infected cells, respectively. Those two types of cells were cultured in 200 µl/well of RPMI1640 medium added with 10% FCS in a 96-well microplate. The PEP inhibitors of this invention and comparative product, which are shown in Table 1, were separately added. The cells were cultured at 37°C for 18 hours in a capneic incubator. Formation of syncytia was observed. The PEP inhibitory action was measured according to the following method.

[2] = biological target: T1, PEP derived from bovine brain (Bos taurus, UniProt Q9XTA2); assay: Measurement of PEP inhibitory action (substrate Z-Gly-Pro-β-naphtyl amide); type: biochemical; conditions: pH 7.0, 37°C, read-out: PEP Inhibition IC50
T1 construct: PEP derived from bovine brain; from tissue; host or cells: bovine brain
T1 sequence (Q9XTA2 1-710): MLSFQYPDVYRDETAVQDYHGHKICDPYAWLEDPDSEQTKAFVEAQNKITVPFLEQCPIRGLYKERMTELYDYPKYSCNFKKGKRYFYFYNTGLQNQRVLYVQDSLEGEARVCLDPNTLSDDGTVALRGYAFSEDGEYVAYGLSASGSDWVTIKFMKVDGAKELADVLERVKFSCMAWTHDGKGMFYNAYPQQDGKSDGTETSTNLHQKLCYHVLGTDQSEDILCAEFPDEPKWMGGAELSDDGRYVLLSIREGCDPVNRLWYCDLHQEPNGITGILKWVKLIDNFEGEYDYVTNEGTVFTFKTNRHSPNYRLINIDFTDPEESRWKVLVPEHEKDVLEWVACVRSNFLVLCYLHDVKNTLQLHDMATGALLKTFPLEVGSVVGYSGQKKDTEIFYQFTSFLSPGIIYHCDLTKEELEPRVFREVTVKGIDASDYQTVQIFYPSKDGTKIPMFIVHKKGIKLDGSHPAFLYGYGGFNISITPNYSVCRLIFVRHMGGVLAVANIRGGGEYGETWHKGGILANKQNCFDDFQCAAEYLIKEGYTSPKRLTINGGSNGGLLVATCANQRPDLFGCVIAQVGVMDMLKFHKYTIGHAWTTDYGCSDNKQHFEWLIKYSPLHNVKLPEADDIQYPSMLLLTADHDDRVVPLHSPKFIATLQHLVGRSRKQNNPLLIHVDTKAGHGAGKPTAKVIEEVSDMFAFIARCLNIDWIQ
Protocol: as §1, with “Those” for “LAV-1 infected CEM cells (CEM/LAV-1, 2 x 10⁴) and MOLT4 Clone 8 (1 x 10⁵) were used as HIV-infected cells and non-infected cells, respectively. Those”
Z-Gly-Pro-β-naphtyl amide was used as a substrate and the inhibitory action against PEP derived from bovine brain was measured.
0.7 ml of 20 mM-tris HCl buffer (pH 7.0) containing 10 mM of EDTA and 10 mM of 2-mercaptoethanol was added with 100 µl of PEP (about 0.14 u/ml) and 100 µl of a test solution which had been prepared to have a predetermined concentration (0, 10⁻⁹ - 10⁻⁴M), and subjected to preincubation at 37°C for 5 minutes. To this was added various concentrations of a substrate which had been dissolved in 100 µl of 40% dioxane followed by incubation at 37°C for 15 minutes to proceed an exzymatic reaction. The reaction was terminated by the use of 25% trichloroacetic acid. The solution was centrifugally separated at 3,000 rpm for 10 minutes to obtain 0.5 ml of a supernatent, to which was added 0.5 ml of 0.1% nitrous acid, and 3 minutes after, 0.05% N-(1-naphtyl)ethylendediaminedihydrochloride ethanol solution. After allowing the mixture to stand at 37°C for 25 minutes, the absorbance at 570 nm was measured. […] Enzyme activity unit (µmol/min/ml) = ΔOD x 0.42 x dilution ratio

Row | Structure (SMILES) | Inhibition of Syncytia Formation [1] | IC50 [2] [µM]
1 | O=C(C1CSCN1C(=O)OCc1ccccc1)N1CCSC1 (stereo not drawn) | +++ | 0.00014
2 | O=C(C1CCCN1C(=O)OCc1ccccc1)N1CCSC1 (stereo not drawn) | ++ | 0.0046
3 | O=C(C1CCCN1C(=O)OCc1ccccc1)N1CCCCC1 (stereo not drawn) | ± | > 1000
4 | O=C(C1CSCN1C(=O)OCc1ccccc1)N1CCCC1 (stereo not drawn) |  | 0.16
5 | O=C(C1CSCN1C(=O)OCc1ccccc1)N1CCOCC1 (stereo not drawn) |  | 0.54
6 | O=CC1CSCN1C(=O)C1CCCN1C(=O)OCc1ccccc1 (stereo not drawn) (Cbz-Pro-[Thz]-aldehyde; configuration not given here) | ++ | 0.001
7 | O=C(C1CSCN1)N1CCSC1 (stereo not drawn) [comparative product, reference compound] |  | > 1000
8 | O=CC1CSCN1C(=O)C1CSCN1C(=O)OCc1ccccc1 (stereo not drawn) (Cbz-[Thz]-[Thz]-aldehyde; configuration not given here) | +++ | 
